Results published in PMC11901911, “Diverse Structures of Tea Polyphenols from Rougui Wuyi Rock Tea and Their Potential as Inhibitor of 3C-like Protease” (Molecules, 2025).
Read-outs that look alike come from different tables or passages of the source.

Assays:
SARS-CoV-2 3CLpro [1] = biological target: T1, SARS-CoV-2 3CLpro (Severe acute respiratory syndrome coronavirus 2, UniProt P0DTD1); test: biochemical; settings: for IC50: FRET assay, serial dilution, read-out: IC50 against SARS-CoV-2 3CLpro; for inhibition at 100 µM: compound concentration 100 μM; for inhibition at 100 µM / inhibition at 10 µM: read-out: Inhibition rate (%) against 3CLpro; for inhibition at 10 µM: compound concentration 10 μM
T1 construct: The kit contains assay buffer (125 mL, blank control), 2019-nCoV-2 3CLpro (500 μL), substrate (1 mL); purchased Beyotime Biotechnology (Shanghai, China) P0312M

SARS-CoV-2 3CLpro [2] = biological target: T1, SARS-CoV-2 3CLpro; parameters: method as in PMID 32963564; settings: in vitro; read-out: IC50 on SARS-CoV-2 3CLpro protein activity; cited from earlier work

SMILES	IC50 (SARS-CoV-2 3CLpro [1])	inhibition at 100 µM (SARS-CoV-2 3CLpro [1])	IC50 (SARS-CoV-2 3CLpro [2])	inhibition at 10 µM (SARS-CoV-2 3CLpro [1])
CCN1C(=O)CC[C@@H]1c1c(O)cc(O)c2c1O[C@H](c1cc(O)c(O)c(O)c1)[C@H](O)C2 [Compound 15, puerin VI]	14.5 ± 1.1 µM	> 50%	–	–
COc1cc(C(=O)O[C@@H]2Cc3c(O)cc(O)cc3O[C@@H]2c2cc(O)c(O)c(O)c2-c2c([C@H]3Oc4cc(O)cc(O)c4C[C@H]3O)cc(O)c(O)c2O)cc(O)c1O [Compound 20, Epigallocatechin-(2′→2′)-epigallocatechin-3-(3″-O-methyl)-gallate]	42.1 µM	> 50%	–	–
O=c1c(O)cc([C@H]2Oc3cc(O)cc(O)c3C[C@H]2O)cc2c([C@H]3Oc4cc(O)cc(O)c4C[C@H]3O)cc(O)c(O)c12 [theaflavin]	–	–	15 µM	–
C[C@@H]1O[C@@H](OC[C@H]2O[C@@H](Oc3c(-c4ccc(O)cc4)oc4cc(O)cc(O)c4c3=O)[C@H](OC(=O)/C=C\c3ccc(O)cc3)[C@@H](O)[C@H]2O)[C@H](O)[C@H](O[C@@H]2O[C@H](CO)[C@@H](O)[C@H](O)[C@H]2O)[C@H]1O [Compound 32, Kaempferol-3-O-[2″-O-(Z)-p-coumaroyl] [β-D-glucopyranosyl-(1→3)-O-α-L-rhamnopyranosyl-(1→6)]-β-D-galactopyranoside]	61.1 µM	> 50%	–	–
O=C(O[C@@H]1Cc2c(O)cc(O)cc2O[C@@H]1c1cc(O)c(O)c(O)c1)c1cc(O)c(O)c(O)c1 [Compound 5, (−)-epigallocatechin-3-O-gallate]	–	–	–	> 50%
Oc1cc(O)c2c(c1)O[C@H](c1ccc(O)c(O)c1)[C@H](O)C2 [Compound 1, (−)-epicatechin]	–	> 50%	–	–
CCN1C(=O)CC[C@H]1c1c(O)cc(O)c2c1O[C@H](c1cc(O)c(O)c(O)c1)[C@H](O)C2 [Compound 14, puerin V]	14.9 ± 1.4 µM	> 50%	–	–
O=C(O[C@@H]1Cc2c(O)cc(O)cc2O[C@@H]1c1cc(O)c(O)c(O)c1-c1c([C@H]2Oc3cc(O)cc(O)c3C[C@H]2OC(=O)c2cc(O)c(O)c(O)c2)cc(O)c(O)c1O)c1cc(O)c(O)c(O)c1 [Compound 21, theasinensin A]	–	> 50%	–	–
O=C(O[C@@H]1Cc2c(O)cc(O)cc2O[C@@H]1c1ccc(O)cc1)c1cc(O)c(O)c(O)c1 [Compound 7, (−)-epiafzelechin-3-O-gallate]	–	> 50%	–	–
O=C(O[C@H]1Cc2c(O)cc(O)cc2O[C@@H]1c1cc(O)c(O)c(O)c1)c1cc(O)c(O)c(O)c1 [Compound 9, (−)-gallocatechin-3-O-gallate]	–	–	–	> 50%
CCN1C(=O)CC[C@H]1c1c(O)cc2c(c1O)C[C@@H](O)[C@@H](c1cc(O)c(O)c(O)c1)O2 [Compound 12, 6-(5″S)-N-ethyl-2-pyrrolidinone-epigallocatechin]	26.8 ± 0.9 µM	> 50%	–	–
COc1cc(C(=O)O[C@@H]2Cc3c(O)cc(O)cc3O[C@@H]2c2cc(O)c(O)c(O)c2)cc(O)c1O [Compound 6, (−)-epigallocatechin-3-(3′-O-methyl)-gallate]	9.8 ± 0.4 µM	–	–	> 50%
Oc1cc(O)c2c(c1)O[C@H](c1cc(O)c(O)c(O)c1)[C@H](O)C2 [Compound 4, (−)-epigallocatechin]	12 ± 1.9 µM	–	–	> 50%
CCN1C(=O)CC[C@@H]1c1c(O)cc2c(c1O)C[C@@H](O)[C@@H](c1cc(O)c(O)c(O)c1)O2 [Compound 11, 6-(5″R)-N-ethyl-2-pyrrolidinone-epigallocatechin]	22.4 ± 5.8 µM	> 50%	–	–
